Experimental findings from PubChem BioAssay AID256 (DTP/NCI, 2004) are described below.

Toxic doses and inconclusive results are not listed.

The experiment concerns CD2F1 mice, L1210 leukemia ip, survival T/C. In words: NCI In Vivo Anticancer Drug Screen. Data for tumor model L1210 Leukemia (intraperitoneal) in CD2F1 (CDF1) mice. The note with it: endpoint: mean survival time, higher = longer survival. Put shortly:
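Ratio T/C, where T is the treated-group value and C the vehicle-dosed control value, from mice implanted with a transplantable tumor.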

Setting [1] is: dose: 200.0 mg/kg/injection, schedule: Q04DX003 (ip), vehicle: saline with Tween-80.
[2] abbreviates: dose: 400.0 mg/kg/injection, schedule: Q04DX003 (ip), vehicle: saline with Tween-80.
Setting [3] is: dose: 100.0 mg/kg/injection, schedule: Q01DX009 (ip), vehicle: saline with Tween-80.
The mark [4] stands for this setting: dose: 200.0 mg/kg/injection, schedule: Q01DX009 (ip), vehicle: saline with Tween-80.
Setting [5] is: dose: 400.0 mg/kg/injection, schedule: Q01DX009 (ip), vehicle: saline with Tween-80.
[6] abbreviates: dose: 25.0 mg/kg/injection, schedule: Q01DX009 (ip), vehicle: saline with Tween-80.
The mark [7] stands for this setting: dose: 50.0 mg/kg/injection, schedule: Q01DX009 (ip), vehicle: saline with Tween-80.
[8] abbreviates: dose: 100.0 mg/kg/injection, schedule: Q04DX003 (ip), vehicle: saline with Tween-80.

Take `CC[n+]1ccc(Nc2ccc(NC(=O)c3ccc(Nc4cc[n+](CC)c5ccc([N+](=O)[O-])cc45)cc3)cc2)cc1`: the T/C was 105 % of control (dose: 2.0 mg/kg/injection, schedule: Q01DX009 (ip), vehicle: saline sonified); 108 % of control (dose: 4.0 mg/kg/injection, schedule: Q01DX009 (ip), vehicle: saline sonified); 123 % of control (dose: 8.0 mg/kg/injection, schedule: Q01DX009 (ip), vehicle: saline sonified); 119 % of control (dose: 11.0 mg/kg/injection, schedule: Q01DX009 (ip), vehicle: saline); 162 % of control (dose: 25.0 mg/kg/injection, schedule: Q01DX009 (ip), vehicle: saline); 203 % of control (dose: 37.5 mg/kg/injection, schedule: Q01DX009 (ip), vehicle: saline).
On to `Oc1c(Cl)cc(Cl)cc1C=NCC1CCC(CN=Cc2cc(Cl)cc(Cl)c2O)CC1` (configuration not stated), for which the T/C is, setting by setting: under setting [1], 90 % of control; under setting [2], 90 % of control.
`CC(=O)NC(C)(C)Cc1ccccc1`: the T/C (dose: 100.0 mg/kg/injection, schedule: Q01DX001 (ip), vehicle: saline with Tween-80) is 101 % of control; the T/C (dose: 200.0 mg/kg/injection, schedule: Q01DX001 (ip), vehicle: saline with Tween-80) was 117 % of control; the T/C (dose: 400.0 mg/kg/injection, schedule: Q01DX001 (ip), vehicle: saline with Tween-80) was 106 % of control.
In the case of `Cc1cc2nc(CC(O)(C(F)(F)F)C(F)(F)F)oc2cc1C`, the T/C under setting [3] was 91 % of control, the T/C under setting [4] is 92 % of control and the T/C under setting [5] was 96 % of control.
Turning to `O=S(=O)(Nc1ccc(Br)cc1)c1ccc(Cl)c(Cl)c1`, the T/C runs as follows: (dose: 100.0 mg/kg/injection, schedule: Q04DX002 (ip), vehicle: saline with Tween-80) 91 % of control; (dose: 200.0 mg/kg/injection, schedule: Q04DX002 (ip), vehicle: saline with Tween-80) 88 % of control; (dose: 400.0 mg/kg/injection, schedule: Q04DX002 (ip), vehicle: saline with Tween-80) 88 % of control.
As to `COc1ccc(NC(=O)Oc2ccc(NC(C)=O)cc2)c(Cl)c1`, the T/C is 100 % of control (dose: 50.0 mg/kg/injection, schedule: Q01DX009 (ip), vehicle: Klucel (hydroxypropylcellulose) (HPC)); 100 % of control (dose: 100.0 mg/kg/injection, schedule: Q01DX009 (ip), vehicle: Klucel (hydroxypropylcellulose) (HPC)); 107 % of control (dose: 200.0 mg/kg/injection, schedule: Q01DX009 (ip), vehicle: Klucel (hydroxypropylcellulose) (HPC)).
Regarding `N=C(N)Sc1ccccn1`, the T/C is 98 % of control (dose: 12.5 mg/kg/injection, schedule: Q01DX009 (ip), vehicle: suspension in saline); 108 % of control (dose: 25.0 mg/kg/injection, schedule: Q01DX009 (ip), vehicle: suspension in saline); 93 % of control (dose: 50.0 mg/kg/injection, schedule: Q01DX009 (ip), vehicle: suspension in saline); 93 % of control (dose: 100.0 mg/kg/injection, schedule: Q01DX009 (ip), vehicle: suspension in saline); 87 % of control (dose: 200.0 mg/kg/injection, schedule: Q01DX009 (ip), vehicle: suspension in saline); 90 % of control (dose: 400.0 mg/kg/injection, schedule: Q01DX009 (ip), vehicle: suspension in saline).
In the case of `Cc1cc[n+](CC(=O)CCc2ccc(C(=O)C[n+]3ccc(C)cc3)cc2)cc1`, the T/C (dose: 1.5 mg/kg/injection, schedule: Q04DX003 (ip), vehicle: saline) was 100 % of control; the T/C (dose: 3.0 mg/kg/injection, schedule: Q04DX003 (ip), vehicle: saline) is 103 % of control; the T/C (dose: 6.0 mg/kg/injection, schedule: Q04DX003 (ip), vehicle: saline) is 95 % of control.
In the case of `COCC/C=C/CCl`, the T/C reads like this: under setting [6], 100 % of control; under setting [7], 92 % of control; under setting [3], 100 % of control.
In the case of `[CH3][Sn]1([CH3])[O]C2C(CO)OC(n3ccc(=O)[nH]c3=O)C2[O]1` (configuration not stated), the T/C is 95 % of control (dose: 12.5 mg/kg/injection, schedule: Q01DX005 (ip), vehicle: other); 101 % of control (dose: 25.0 mg/kg/injection, schedule: Q01DX005 (ip), vehicle: other); 92 % of control (dose: 50.0 mg/kg/injection, schedule: Q01DX005 (ip), vehicle: other).
For `Cc1cccc(C2=NCCN2)c1C`, the T/C (dose: 5.0 mg/kg/injection, schedule: Q01DX001 (ip), vehicle: saline with Tween-80) was 95 % of control; the T/C (dose: 10.0 mg/kg/injection, schedule: Q01DX001 (ip), vehicle: saline with Tween-80) was 97 % of control; the T/C (dose: 20.0 mg/kg/injection, schedule: Q01DX001 (ip), vehicle: saline with Tween-80) is 97 % of control.
As to `Clc1ccc(Oc2ccc(Cl)cc2)cc1`, the T/C was 94 % of control under setting [7], 100 % of control under setting [3] and 105 % of control under setting [4].
For `CC(=O)c1cccc(OCc2ccccc2)c1`, the T/C was 96 % of control (dose: 100.0 mg/kg/injection, schedule: Q04DX003 (ip), vehicle: other) and 96 % of control (dose: 200.0 mg/kg/injection, schedule: Q04DX003 (ip), vehicle: other).
Turning to `O=[N+]([O-])c1ccc(C(O)C(Br)[N+](=O)[O-])cc1` (configuration not stated), the T/C under setting [3] was 93 % of control; the T/C under setting [8] is 101 % of control; the T/C under setting [4] was 94 % of control; the T/C under setting [1] is 98 % of control; the T/C under setting [5] is 87 % of control; the T/C under setting [2] was 95 % of control.
Take `CC1=CC(=O)C(Sc2ccc(C)cc2)=CC1=O`: the T/C under setting [7] is 94 % of control.
As for `CN1CCc2cc3c(cc2C(=O)Cc2ccc4c(c2C1)OCO4)OCO3`, the T/C reads like this: under setting [6], 98 % of control; under setting [7], 101 % of control; under setting [3], 103 % of control.
Regarding `CCOC(=O)/C(C#N)=C1/C=CC=CN1`, the T/C is, setting by setting: under setting [3], 98 % of control; under setting [8], 102 % of control; under setting [4], 102 % of control; under setting [1], 110 % of control; under setting [5], 100 % of control; under setting [2], 103 % of control.
With `CN(C)c1ccc(N=Nc2cccc(Cl)c2Cl)cc1`, the T/C is, setting by setting: under setting [6], 102 % of control; under setting [7], 97 % of control; under setting [3], 105 % of control; under setting [8], 95 % of control; under setting [1], 98 % of control; under setting [2], 104 % of control.
In the case of `c1cnc2c(c1)CCCC2`, the T/C by setting is: (dose: 12.5 mg/kg/injection, schedule: Q01DX009 (ip), vehicle: saline with Tween-80) 95 % of control; under setting [6], 91 % of control; under setting [7], 87 % of control.
Consider `O=S(=O)(/C=C\c1ccccc1)/C=C/c1ccccc1`, for which the T/C reads like this: under setting [8], 91 % of control; under setting [2], 86 % of control.
Consider `CC(=O)c1ccc[n+](C)c1`, for which the T/C runs as follows: (dose: 100.0 mg/kg/injection, schedule: Q04DX003 (ip), vehicle: saline) 104 % of control; (dose: 200.0 mg/kg/injection, schedule: Q04DX003 (ip), vehicle: saline) 104 % of control.
